In PubChem BioAssay AID1259407 (Chemical Carcinogenesis Research Information System (CCRIS), 2018) one finds mutagenic call data, which are given here for five molecules.

Activity calls are given as the source filed them. No rule for the calls is given here.

The test system of the data set is CCRIS mutagenicity, Ames/micronucleus/aberration tests. As to the kind of experiment: CCRIS mutagenicity studies.
The mark [1] stands for this setting: Test System: AMES SALMONELLA TYPHIMURIUM, Strain/Indicator: TA98, Metabolic Activation: NONE, Method: STANDARD PLATE.
The mark [2] stands for this setting: Test System: AMES SALMONELLA TYPHIMURIUM, Strain/Indicator: TA100, Metabolic Activation: NONE, Method: STANDARD PLATE.

Consider `COc1cccc2c(NCCCNCCCl)c3ccccc3nc12`, for which the mutagenic call is, setting by setting: under setting [1], “active; positive”; under setting [2], “active; positive”; (Test System: AMES SALMONELLA TYPHIMURIUM, Strain/Indicator: TA1535, Metabolic Activation: NONE, Method: STANDARD PLATE) “inactive; negative”; (Test System: AMES SALMONELLA TYPHIMURIUM, Strain/Indicator: TA1536, Metabolic Activation: NONE, Method: STANDARD PLATE) “active; positive”; (Test System: AMES SALMONELLA TYPHIMURIUM, Strain/Indicator: TA1537, Metabolic Activation: NONE, Method: STANDARD PLATE) “active; positive”; (Test System: AMES SALMONELLA TYPHIMURIUM, Strain/Indicator: TA1538, Metabolic Activation: NONE, Method: STANDARD PLATE) “active; positive”.

For `CC(Br)(CCl)CBr` (stereo unspecified), the mutagenic call (Test System: AMES SALMONELLA TYPHIMURIUM, Strain/Indicator: TA98, Metabolic Activation: NONE, Method: FLASK ASSAY) was “inactive; negative”; the mutagenic call (Test System: AMES SALMONELLA TYPHIMURIUM, Strain/Indicator: TA98, Metabolic Activation: RAT, LIVER, S-9, AROCLOR 1254, Method: FLASK ASSAY) is “inactive; negative”; the mutagenic call (Test System: AMES SALMONELLA TYPHIMURIUM, Strain/Indicator: TA100, Metabolic Activation: NONE, Method: FLASK ASSAY) was “inactive; negative”; the mutagenic call (Test System: AMES SALMONELLA TYPHIMURIUM, Strain/Indicator: TA100, Metabolic Activation: RAT, LIVER, MICROSOMES, PHENOBARBITAL, Method: PREINCUBATION) was “inactive; negative”; the mutagenic call (Test System: AMES SALMONELLA TYPHIMURIUM, Strain/Indicator: TA100, Metabolic Activation: RAT, LIVER, MICROSOMES, Method: PREINCUBATION) is “inactive; negative”; the mutagenic call (Test System: AMES SALMONELLA TYPHIMURIUM, Strain/Indicator: TA100, Metabolic Activation: RAT, LIVER, S-9, AROCLOR 1254, Method: FLASK ASSAY) is “inactive; negative”. For the same molecule, the mutagenic call is “inactive; negative” (Test System: AMES SALMONELLA TYPHIMURIUM, Strain/Indicator: TA1535, Metabolic Activation: NONE, Method: FLASK ASSAY); “inactive; negative” (Test System: AMES SALMONELLA TYPHIMURIUM, Strain/Indicator: TA1535, Metabolic Activation: RAT, LIVER, S-9, AROCLOR 1254, Method: FLASK ASSAY); “inactive; negative” (Test System: AMES SALMONELLA TYPHIMURIUM, Strain/Indicator: TA1537, Metabolic Activation: NONE, Method: FLASK ASSAY); “inactive; negative” (Test System: AMES SALMONELLA TYPHIMURIUM, Strain/Indicator: TA1537, Metabolic Activation: RAT, LIVER, S-9, AROCLOR 1254, Method: FLASK ASSAY); “inactive; negative” (Test System: AMES SALMONELLA TYPHIMURIUM, Strain/Indicator: TA1538, Metabolic Activation: NONE, Method: FLASK ASSAY); “inactive; negative” (Test System: AMES SALMONELLA TYPHIMURIUM, Strain/Indicator: TA1538, Metabolic Activation: RAT, LIVER, S-9, AROCLOR 1254, Method: FLASK ASSAY). Also, the mutagenic call is, setting by setting: (Test System: MOUSE LYMPHOMA, Strain/Indicator: L5178Y (TK+/TK-), Metabolic Activation: NONE, Method: SUSPENSION/PLATE) “active; positive”; (Test System: MOUSE LYMPHOMA, Strain/Indicator: L5178Y (TK+/TK-), Metabolic Activation: RAT, LIVER, S-9, AROCLOR 1254, Method: SUSPENSION/PLATE) “inactive; negative”.

For the molecule `CCCCC(CC)COC(=O)c1ccccc1C(=O)O` (stereo unspecified), the mutagenic call was “inactive; negative” (Test System: AMES SALMONELLA TYPHIMURIUM, Strain/Indicator: TA97, Metabolic Activation: NONE, Method: STANDARD PLATE); “inactive; negative” (Test System: AMES SALMONELLA TYPHIMURIUM, Strain/Indicator: TA97, Metabolic Activation: RAT, LIVER, S-9, AROCLOR 1254, Method: STANDARD PLATE); “inactive; negative” (Test System: AMES SALMONELLA TYPHIMURIUM, Strain/Indicator: TA97, Metabolic Activation: RAT, LIVER, S-9, DI(2-ETHYLHEXYL)PHTHALATE, Method: STANDARD PLATE); “inactive; negative” (Test System: AMES SALMONELLA TYPHIMURIUM, Strain/Indicator: TA98, Metabolic Activation: HAMSTER, LIVER, S-9, AROCLOR 1254 (10%), Method: PREINCUBATION); “inactive; negative” (Test System: AMES SALMONELLA TYPHIMURIUM, Strain/Indicator: TA98, Metabolic Activation: NONE, Method: PREINCUBATION); “inactive; negative” under setting [1]. The mutagenic call runs as follows: (Test System: AMES SALMONELLA TYPHIMURIUM, Strain/Indicator: TA98, Metabolic Activation: RAT, LIVER, S-9, AROCLOR 1254 (10%), Method: PREINCUBATION) “inactive; negative”; (Test System: AMES SALMONELLA TYPHIMURIUM, Strain/Indicator: TA98, Metabolic Activation: RAT, LIVER, S-9, AROCLOR 1254, Method: STANDARD PLATE) “inactive; negative”; (Test System: AMES SALMONELLA TYPHIMURIUM, Strain/Indicator: TA98, Metabolic Activation: RAT, LIVER, S-9, DI(2-ETHYLHEXYL)PHTHALATE, Method: STANDARD PLATE) “inactive; negative”; (Test System: AMES SALMONELLA TYPHIMURIUM, Strain/Indicator: TA100, Metabolic Activation: HAMSTER, LIVER, S-9, AROCLOR 1254 (10%), Method: PREINCUBATION) “inactive; negative”; (Test System: AMES SALMONELLA TYPHIMURIUM, Strain/Indicator: TA100, Metabolic Activation: NONE, Method: PREINCUBATION) “inactive; negative”; under setting [2], “inactive; negative”. Besides, the mutagenic call was “inactive; negative” (Test System: AMES SALMONELLA TYPHIMURIUM, Strain/Indicator: TA100, Metabolic Activation: RAT, LIVER, S-9, AROCLOR 1254 (10%), Method: PREINCUBATION); “inactive; negative” (Test System: AMES SALMONELLA TYPHIMURIUM, Strain/Indicator: TA100, Metabolic Activation: RAT, LIVER, S-9, AROCLOR 1254, Method: STANDARD PLATE); “inactive; negative” (Test System: AMES SALMONELLA TYPHIMURIUM, Strain/Indicator: TA100, Metabolic Activation: RAT, LIVER, S-9, DI(2-ETHYLHEXYL)PHTHALATE, Method: STANDARD PLATE); “inactive; negative” (Test System: AMES SALMONELLA TYPHIMURIUM, Strain/Indicator: TA102, Metabolic Activation: NONE, Method: STANDARD PLATE); “inactive; negative” (Test System: AMES SALMONELLA TYPHIMURIUM, Strain/Indicator: TA102, Metabolic Activation: RAT, LIVER, S-9, AROCLOR 1254, Method: STANDARD PLATE); “inactive; negative” (Test System: AMES SALMONELLA TYPHIMURIUM, Strain/Indicator: TA102, Metabolic Activation: RAT, LIVER, S-9, DI(2-ETHYLHEXYL)PHTHALATE, Method: STANDARD PLATE). In addition, the mutagenic call is “inactive; negative” (Test System: AMES SALMONELLA TYPHIMURIUM, Strain/Indicator: TA1535, Metabolic Activation: HAMSTER, LIVER, S-9, AROCLOR 1254 (10%), Method: PREINCUBATION); “inactive; negative” (Test System: AMES SALMONELLA TYPHIMURIUM, Strain/Indicator: TA1535, Metabolic Activation: NONE, Method: PREINCUBATION); “inactive; negative” (Test System: AMES SALMONELLA TYPHIMURIUM, Strain/Indicator: TA1535, Metabolic Activation: RAT, LIVER, S-9, AROCLOR 1254 (10%), Method: PREINCUBATION); “inactive; negative” (Test System: AMES SALMONELLA TYPHIMURIUM, Strain/Indicator: TA1537, Metabolic Activation: HAMSTER, LIVER, S-9, AROCLOR 1254 (10%), Method: PREINCUBATION); “inactive; negative” (Test System: AMES SALMONELLA TYPHIMURIUM, Strain/Indicator: TA1537, Metabolic Activation: NONE, Method: PREINCUBATION); “inactive; negative” (Test System: AMES SALMONELLA TYPHIMURIUM, Strain/Indicator: TA1537, Metabolic Activation: RAT, LIVER, S-9, AROCLOR 1254 (10%), Method: PREINCUBATION).

With `COc1cc(N=Nc2c(Br)cc([N+](=O)[O-])cc2[N+](=O)[O-])c(NC(C)=O)cc1N(CCOC(C)=O)CCOC(C)=O`, under “End Point: IN VITRO CHROMOSOMAL ABERRATIONS, Test System: CHL CELLS, Metabolic Activation: NONE”, the mutagenic call is “active; positive (structural changes)”.

Turning to `CC(=O)Oc1c2ccccc2c2ccc3cccc4ccc1c2c43`, under “Test System: UDS RODENT PRIMARY CELLS, Strain/Indicator: THY INCORP (NON-S-PHASE), Metabolic Activation: NONE, Method: AUTORADIOGRAPHY”, the mutagenic call was “active; positive”.
